Source: article PMC4785407, “Reduction Impairs the Antibacterial Activity but Benefits the LPS Neutralization Ability of Human Enteric Defensin 5” (Scientific Reports, 2016)
Like-named read-outs stand apart in the source and are kept apart here. Bridge positions count the residues as written; N and C are the ends. Peptide text beside a SMILES is read from it.

What was measured:
[1] = Biolayer interferometry (BLI), binding to lipid A; conditions: for Kd / Koff (dissociation rate constant) / Kon (association rate constant): BLI, 1:1 fit
Description: The recruitment of peptides to lipid A (Sigma L5399) was determined using Forte Bio’s “Octet Red 96” BLI (Pall Life Sciences, US). The amine-reactive second-generation (AR2G) biosensor was activated using 20 mM 1-ethyl-3-[3-dimethylaminopropy] carbodiimide hydrochloride (EDC, Sigma E1769) and 10 mM sulfo-N-hydroxysulfosuccinimide (s-NHS, Sigma 56485). Lipid A was immobilized on biosensors at the concentration of 20 μg/mL until the binding curves reached the plateau. Ethanolamine (1 M, pH 8.5) was used to quench the immobilization. Peptides were prepared in the running buffer (5 mM sodium phosphate buffer, pH 7.4), with concentrations of 200, 400, 600, 800, 1000, and 1200 nM, respectively. Association and disassociation, 5 min for each, were carried out at a shaking speed of 600 rpm. Biosensors were regenerated by 0.1 M Glycine-HCl buffer (pH 2.0). […] The binding thicknesses were processed using Fortebio Data Analysis 7.0 software, in which the methods for y-axis alignment, inter-step correction, and Savitzky-Golay filtering were specified. The equilibrium dissociation constant (KD), calculated as the ratio of the dissociation rate constant (Koff) to the association rate constant (Kon), was generated by a 1:1 fitting model. This experiment was repeated three times.
^a The binding kinetics between peptides and bacterial lipid A were determined with a biolayer interferometry (BLI). Lipid A was immobilized on AR2G biosensors at the concentration of 20 μg/mL until the binding curves reached the plateau. Peptides were prepared in the running buffer (5 mM sodium phosphate buffer, pH 7.4), with concentrations of 200, 400, 600, 800, 1000, and 1200 nM, respectively. Association and disassociation, 5 min for each, were carried out at a shaking speed of 600 rpm. The bindings were processed using Fortebio Data Analysis 7.0 software, which specifies the methods for y-axis alignment, inter-step correction, reference subtraction, and Savitzky-Golay filtering. The experiment was repeated three times.
^b Kon, the association rate constant; Koff, the dissociation rate constant; KD, the equilibrium dissociation constant; R^2, the fitting correlation coefficient. These parameters were generated by a 1:1 fitting model. KD is calculated as the ratio of Koff to Kon. […]

[2] = system: Salmonella enterica serovar Typhimurium (ATCC 14028); experiment: virtual colony count assay, S. Typhimurium; assay type: cell-based; conditions: for LD50 (Lethal Dose that kills 50% of bacteria) / LD90 (Lethal Dose that kills 90% of bacteria): ATCC 14028 S. Typhimurium, 1 × 10^6 CFU/mL, 10 mM sodium phosphate buffer pH 7.4, 1% TSB, 37 °C, 1 h, duplicate, repeated three times
Description: (§1) Figure 3 Reduction attenuates the antibacterial activity of HD5OX against Gram-negative bacteria. […] Peptides were prepared in sterile water, with the final concentrations of 0.78, 1.56, 3.13, 6.25, 12.5, and 25 μg/mL. […] Zero survival points are not plotted.

[3] = system: Escherichia coli (ATCC 25922); experiment: virtual colony count assay, E. coli; assay type: cell-based; conditions: for LD50 (Lethal Dose that kills 50% of bacteria) / LD90 (Lethal Dose that kills 90% of bacteria): ATCC 25922 E. coli, 1 × 10^6 CFU/mL, 10 mM sodium phosphate buffer pH 7.4, 1% TSB, 37 °C, 1 h, duplicate, repeated three times
Description: as §1

[4] = Circular dichroism (CD) spectroscopy; assay type: physicochemical; conditions: 27 °C; for CD secondary structure in the presence of LPS: 100 μg/mL peptide, 100 μg/mL LPS; for CD secondary structure in SDS micelles: 100 μg/mL, 20 mM SDS
Description: The conformational properties of the peptides were analyzed using an Applied Photophysics Chirascan instrument at 27 °C. A cell with a 1-mm path length was utilized. The CD spectra were obtained from 190–280 nm at 1 nm intervals. The time-per-point was 0.5 s, and the scanning time was approximately 73 s. Peptides (100 μg/mL, 250 μL) prepared in sterile water were examined in the presence of 20 mM sodium dodecyl sulfate (SDS) and 100 μg/mL LPS. Before scanning, peptides were incubated with SDS and LPS at room temperature for 1 h. The data obtained from three independent scans were averaged and smoothed by Pro-Data Chirascan software (version 4.1).

E. coli = experiment: Antibacterial assay in the presence of LPS; assay type: cell-based; conditions: 4 μg/mL LPS, 12.5 μg/mL peptide
Description: (B) Heat release of the interaction between 1 mg/mL of the peptides and 10 μg/mL of LPS. Shown is the relationship between the enthalpy value (△H) and the weight ratio of peptides to LPS. […] The antibacterial efficiency is presented as the bacterial lethal rate, which is calculated by dividing the number of killed colonies by the number of colonies remaining after treatment with sterile water or 0.25 mM DTT. Statistical significance was determined by the Student’s t-test. n.s, not significant; **p < 0.01.

[5] = AR2G biosensor, 5 mM sodium phosphate buffer pH 7.4, 200-1200 nM, mean ± SD from three independent assays, read-out: KD (equilibrium dissociation constant) binding to lipid A
[6] = lipid A, repeat 1th, read-out: KD
[7] = lipid A, repeat 2th, read-out: KD
[8] = lipid A, repeat 3th, read-out: KD
[9] = virtual colony count, 0.78-25 μg/mL, HD5OX vs HD5RED

Compound	Kd [1, 5] [nM]	Koff (dissociation rate constant) ([1]; lipid A, repeat 1th) [s⁻¹]	Kon (association rate constant) ([1]; lipid A, repeat 1th) [M⁻¹ s⁻¹]	Kd [1, 6] [nM]	Koff (dissociation rate constant) ([1]; lipid A, repeat 2th) [s⁻¹]	Kon (association rate constant) ([1]; lipid A, repeat 2th) [M⁻¹ s⁻¹]	Kd [1, 7] [nM]	Koff (dissociation rate constant) ([1]; lipid A, repeat 3th) [s⁻¹]	Kon (association rate constant) ([1]; lipid A, repeat 3th) [M⁻¹ s⁻¹]	Kd [1, 8] [nM]	LD50 (Lethal Dose that kills 50% of bacteria) [2] [µg/mL]	LD90 (Lethal Dose that kills 90% of bacteria) [2] [µg/mL]	LD50 (Lethal Dose that kills 50% of bacteria) [3] [µg/mL]	LD90 (Lethal Dose that kills 90% of bacteria) [3] [µg/mL]	CD secondary structure in the presence of LPS [4]	CD secondary structure in SDS micelles [4]	antibacterial efficiency in presence of LPS (E. coli)	other results
CC[C@H](C)[C@H](NC(=O)[C@H](CCC(=O)O)NC(=O)[C@H](CS)NC(=O)[C@@H](NC(=O)CNC(=O)[C@H](CO)NC(=O)[C@H](CC(C)C)NC(=O)[C@H](CO)NC(=O)[C@H](CCC(=O)O)NC(=O)[C@H](CCCNC(=N)N)NC(=O)[C@@H](NC(=O)[C@H](C)NC(=O)[C@H](CS)NC(=O)[C@H](CCCNC(=N)N)NC(=O)CNC(=O)[C@@H](NC(=O)[C@H](CCCNC(=N)N)NC(=O)[C@H](CS)NC(=O)[C@H](Cc1ccc(O)cc1)NC(=O)[C@H](CS)NC(=O)[C@@H](NC(=O)[C@H](C)N)[C@@H](C)O)[C@@H](C)O)[C@@H](C)O)C(C)C)C(=O)N[C@@H](CO)C(=O)NCC(=O)N[C@@H](CCCNC(=N)N)C(=O)N[C@@H](CC(C)C)C(=O)N[C@@H](Cc1ccc(O)cc1)C(=O)N[C@@H](CCCNC(=N)N)C(=O)N[C@@H](CC(C)C)C(=O)N[C@@H](CS)C(=O)N[C@@H](CS)C(=O)N[C@@H](CCCNC(=N)N)C(=O)O [HD5RED] (H-ATCYCRTGRCATRESLSGVCEISGRLYRLCCR-OH)	140 ± 30	0.000389	2140	182	0.000337	2570	131	0.000264	2250	117	7.9 ± 1.1	19.5 ± 1.6	6.5 ± 0.8	12.9 ± 1.3	adopted a different conformation with two negative ellipticities at 217 nm and 206 nm	transformed into a peptide containing α-helical structures	significantly impaired	recruitment to lipid A ([1]; 1000 nM, 5 mM sodium phosphate buffer, HD5RED vs HD5OX): fewer HD5RED than HD5OX molecules were recruited to the lipid A; fold KD relative to HD5OX ([1]; lipid A, higher than HD5OX): 1.9 -fold; fold of concentration needed to inactivate 90% relative to HD5OX ([2]; S. Typhimurium ATCC 14028, higher than HD5OX): 2.0 -fold; fold of concentration needed to inactivate 90% relative to HD5OX ([3]; E. coli ATCC 25922, higher than HD5OX): 1.7 -fold; CD secondary structure in aqueous ([4]; 100 μg/mL in sterile water, vs HD5OX): less effective in forming rigid β-sheet structures
CC[C@H](C)[C@@H]1NC(=O)[C@H](CCC(=O)O)NC(=O)[C@@H]2CSSC[C@@H]3NC(=O)[C@H](Cc4ccc(O)cc4)NC(=O)[C@@H](NC(=O)[C@@H](NC(=O)[C@H](C)N)[C@@H](C)O)CSSC[C@@H](C(=O)N[C@@H](CCCNC(=N)N)C(=O)O)NC(=O)[C@H](CSSC[C@H](NC(=O)[C@H](CCCNC(=N)N)NC(=O)CNC(=O)[C@H]([C@@H](C)O)NC(=O)[C@H](CCCNC(=N)N)NC3=O)C(=O)N[C@@H](C)C(=O)N[C@@H]([C@@H](C)O)C(=O)N[C@@H](CCCNC(=N)N)C(=O)N[C@@H](CCC(=O)O)C(=O)N[C@@H](CO)C(=O)N[C@@H](CC(C)C)C(=O)N[C@@H](CO)C(=O)NCC(=O)N[C@@H](C(C)C)C(=O)N2)NC(=O)[C@H](CC(C)C)NC(=O)[C@H](CCCNC(=N)N)NC(=O)[C@H](Cc2ccc(O)cc2)NC(=O)[C@H](CC(C)C)NC(=O)[C@H](CCCNC(=N)N)NC(=O)CNC(=O)[C@H](CO)NC1=O [HD5OX, Oxidized human defensin 5] (H-ATCYCRTGRCATRESLSGVCEISGRLYRLCCR-OH; disulfide 3-31, 5-20, 10-30; N-terminus and C-terminus assumed)	75 ± 24	0.000324	6320	51.3	0.000536	5410	99.1	0.000509	6830	74.5	4.6 ± 0.5	9.6 ± 0.7	3.2 ± 0.7	7.6 ± 1.1	slightly red-shifted	maintained the β-sheet structures	virtually unaffected	antibacterial action against S. Typhimurium, relative [2, 9]: more potent action against these bacteria than HD5RED; antibacterial action against E. coli, relative [3, 9]: more potent action against these bacteria than HD5RED
